Measured values from patent publication US11000033B2, “Ketone or oxime compound, and herbicide” (NISSAN CHEMICAL CORPORATION, priority 2014, dated 2021).

Key:
Format in all cases: in vivo
soybean = experiment: Test Example 4: effect on crop by soil treatment (symbol d); settings: application herbicide amount 320 g/ha
Method in brief: (§1)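 Crop seeds, among them rice, wheat, beet and rapeseed, were sown in sterilized diluvial soil and covered with about 1.5 cm of soil. Boxes were kept in a greenhouse at 25° C. to 30° C. for plant growth.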

Digitaria ciliaris = experiment: Test Example 4: herbicidal effect by soil treatment (symbol F); settings: application herbicide amount 320 g/ha
Method in brief: (§2)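 Seeds were sown in sterilized diluvial soil, covered with about 1.5 cm of soil, and the soil surface was sprayed with a water-diluted emulsion of the compound at a predetermined rate. Plants grew in a greenhouse at 25° C. to 30° C.; effects were scored visually 3 weeks after application.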

wheat = experiment: Test Example 4: effect on crop by soil treatment (symbol e); settings: application herbicide amount 320 g/ha
Method in brief: as §1

rapeseed = experiment: Test Example 4: effect on crop by soil treatment (symbol g); settings: application herbicide amount 320 g/ha
Method in brief: as §1

rice = experiment: Test Example 4: effect on crop by soil treatment (symbol b); settings: application herbicide amount 320 g/ha
Method in brief: as §1

transplanted rice plant = experiment: Test Example 1: effect on crop, application before weed generation in submerged conditions (symbol a); settings: application herbicide amount 320 g/ha
Method in brief: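 Alluvial soil pots flooded to 4 cm water, sown with Echinochloa oryzacola, Scirpus juncoides and Monochoria vaginalis, then transplanted with 2.5 leaf stage rice seedlings; pre-emergence application. Greenhouse 25° C. to 30° C.; scored 0–5 by herbicidal ratio 3 weeks after application.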

Cyperus difformis = experiment: Test Example 3: herbicidal effect by foliage application, Wagner pot (symbol E); settings: application herbicide amount 320 g/ha
Method in brief: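 Seeds sown in alluvial soil kept under 0.1–0.5 cm water, greenhouse 25–30 °C; 14 d growth. Leaves treated by small sprayer with water-diluted emulsion at a predetermined rate. Effect graded by set scale, 3 weeks.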

[1] = tested on: Echinochloa oryzacola Vasing.; experiment: Test Example 2: herbicidal activity, application during weed generation in submerged conditions (symbol A); settings: Table 23; application herbicide amount 320 g/ha; grade 0-5 by criteria of Test Example 1
Method in brief: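 Each pot contained alluvial soil under 4 cm of water with seeds of all three weeds sown together. Following growth at 25° C. to 30° C. to the one- to two-leaf stage, the floodwater received diluted emulsion at a predetermined amount; visual assessment followed at 3 weeks.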

Avena fatua = experiment: Test Example 4: herbicidal effect by soil treatment (symbol I); settings: application herbicide amount 320 g/ha
Method in brief: as §2

Stellaria media = experiment: Test Example 5: herbicidal effect by foliage application, plastic box (symbol P); settings: 320 g/ha, 3 weeks after application
Method in brief: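 After sowing into sterilized diluvial soil and growing two weeks under glass at 25° C. to 30° C., seedlings receive a uniform foliar spray of diluted emulsion. Damage is judged visually three weeks on.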

corn = experiment: Test Example 5: effect on crop by foliage application, plastic box (symbol c); settings: 320 g/ha, 3 weeks after application
Method in brief: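 A greenhouse held between 25° C. and 30° C. was used to grow plants sown spot-wise, beneath ~1.5 cm of soil, in boxes of sterilized diluvial soil.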

Compound | d (soybean) effect on crop grade (soybean) | F (Digitaria ciliaris) herbicidal effect grade (Digitaria ciliaris) | e (wheat) effect on crop grade (wheat) | g (rapeseed) effect on crop grade (rapeseed) | b (directly sowed rice plant) effect on crop grade (rice) | Effect grade on crop, a: transplanted rice plant (transplanted rice plant) | herbicidal effect on E, grade 0-5 (Cyperus difformis) | Herbicidal effect grade, A: Echinochloa oryzacola Vasing. [1] | I (Avena fatua) herbicidal effect grade (Avena fatua) | P: Stellaria media, herbicidal effect grade (Stellaria media) | c: corn, effect on crop grade (corn)
CC(CC1CC(O)=C(c2c(C)cc(C)cc2C)C1=O)=NOCC[Si](C)(C)C (stereo not shown) [1-055] | 0 (Herbicidal ratio of 5% or lower (almost no effect)) | 5 (Herbicidal ratio of 90% or more (almost completely withered)) | 0 (Herbicidal ratio of 5% or lower (almost no effect)) | 0 (Herbicidal ratio of 5% or lower (almost no effect)) | 5 (Herbicidal ratio of 90% or more (almost completely withered)) | 5 (Herbicidal ratio of 90% or more (almost completely withered)) | 4 (Herbicidal ratio of 70% or higher and lower than 90%) | 2 (Herbicidal ratio of 20% or higher and lower than 40%) | 0 (Herbicidal ratio of 5% or lower (almost no effect)) | 0 (Herbicidal ratio of 5% or lower (almost no effect)) | 3 (Herbicidal ratio of 40% or higher and lower than 70%)
CC(CC1CC(O)=C(c2c(C)cc(C)cc2C)C1=O)=NOCC=CCl (stereo not shown) [1-056] | 0 (Herbicidal ratio of 5% or lower (almost no effect)) | 5 (Herbicidal ratio of 90% or more (almost completely withered)) | 5 (Herbicidal ratio of 90% or more (almost completely withered)) | 4 (Herbicidal ratio of 70% or higher and lower than 90%) | 5 (Herbicidal ratio of 90% or more (almost completely withered)) | 5 (Herbicidal ratio of 90% or more (almost completely withered)) | 5 (Herbicidal ratio of 90% or more (almost completely withered)) | 5 (Herbicidal ratio of 90% or more (almost completely withered)) | 3 (Herbicidal ratio of 40% or higher and lower than 70%) | 0 (Herbicidal ratio of 5% or lower (almost no effect)) | 4 (Herbicidal ratio of 70% or higher and lower than 90%)
CC(CC1CC(O)=C(c2c(C)cc(C)cc2C)C1=O)=NOc1ccccc1 (stereo not shown) [1-057] | 0 (Herbicidal ratio of 5% or lower (almost no effect)) | 4 (Herbicidal ratio of 70% or higher and lower than 90%) | 0 (Herbicidal ratio of 5% or lower (almost no effect)) | 4 (Herbicidal ratio of 70% or higher and lower than 90%) | 5 (Herbicidal ratio of 90% or more (almost completely withered)) | 4 (Herbicidal ratio of 70% or higher and lower than 90%) | 3 (Herbicidal ratio of 40% or higher and lower than 70%) | 2 (Herbicidal ratio of 20% or higher and lower than 40%) | 0 (Herbicidal ratio of 5% or lower (almost no effect)) | 0 (Herbicidal ratio of 5% or lower (almost no effect)) | 0 (Herbicidal ratio of 5% or lower (almost no effect))
CC(CC1CC(O)=C(c2c(C)cc(C)cc2C)C1=O)=NO (stereo not shown) [1-058] | 0 (Herbicidal ratio of 5% or lower (almost no effect)) | 5 (Herbicidal ratio of 90% or more (almost completely withered)) | 0 (Herbicidal ratio of 5% or lower (almost no effect)) | 3 (Herbicidal ratio of 40% or higher and lower than 70%) | 5 (Herbicidal ratio of 90% or more (almost completely withered)) | 5 (Herbicidal ratio of 90% or more (almost completely withered)) | 5 (Herbicidal ratio of 90% or more (almost completely withered)) | 5 (Herbicidal ratio of 90% or more (almost completely withered)) | 1 (Herbicidal ratio of 5% or higher and lower than 20%) | 0 (Herbicidal ratio of 5% or lower (almost no effect)) | 4 (Herbicidal ratio of 70% or higher and lower than 90%)
CON=C(CC1CC(O)=C(c2c(C)cc(C)cc2C)C1=O)C(C)(C)C (stereo not shown) [1-059] | 0 (Herbicidal ratio of 5% or lower (almost no effect)) | 4 (Herbicidal ratio of 70% or higher and lower than 90%) | 0 (Herbicidal ratio of 5% or lower (almost no effect)) | 0 (Herbicidal ratio of 5% or lower (almost no effect)) | 4 (Herbicidal ratio of 70% or higher and lower than 90%) | 4 (Herbicidal ratio of 70% or higher and lower than 90%) | 3 (Herbicidal ratio of 40% or higher and lower than 70%) | 4 (Herbicidal ratio of 70% or higher and lower than 90%) | 0 (Herbicidal ratio of 5% or lower (almost no effect)) | 0 (Herbicidal ratio of 5% or lower (almost no effect)) | 4 (Herbicidal ratio of 70% or higher and lower than 90%)
CON=C(C)CC1CC(OC(=O)C(C)Oc2ccccc2)=C(c2c(C)cc(C)cc2C)C1=O (stereo not shown) [1-060] | 0 (Herbicidal ratio of 5% or lower (almost no effect)) | 5 (Herbicidal ratio of 90% or more (almost completely withered)) | 2 (Herbicidal ratio of 20% or higher and lower than 40%) | 3 (Herbicidal ratio of 40% or higher and lower than 70%) | 5 (Herbicidal ratio of 90% or more (almost completely withered)) | 5 (Herbicidal ratio of 90% or more (almost completely withered)) | 5 (Herbicidal ratio of 90% or more (almost completely withered)) | 5 (Herbicidal ratio of 90% or more (almost completely withered)) | 3 (Herbicidal ratio of 40% or higher and lower than 70%) | 3 (Herbicidal ratio of 40% or higher and lower than 70%) | 4 (Herbicidal ratio of 70% or higher and lower than 90%)
CON=C(CC1CC(OC(=O)COc2ccccc2)=C(c2c(C)cc(C)cc2C)C1=O)C1CC1 (stereo not shown) [1-063] | 0 (Herbicidal ratio of 5% or lower (almost no effect)) | 5 (Herbicidal ratio of 90% or more (almost completely withered)) | 3 (Herbicidal ratio of 40% or higher and lower than 70%) | 0 (Herbicidal ratio of 5% or lower (almost no effect)) | 5 (Herbicidal ratio of 90% or more (almost completely withered)) | 5 (Herbicidal ratio of 90% or more (almost completely withered)) | 5 (Herbicidal ratio of 90% or more (almost completely withered)) | 4 (Herbicidal ratio of 70% or higher and lower than 90%) | 3 (Herbicidal ratio of 40% or higher and lower than 70%) | 0 (Herbicidal ratio of 5% or lower (almost no effect)) | 3 (Herbicidal ratio of 40% or higher and lower than 70%)
CON=C(C)CC1CC(OC(=O)C(C)(C)Oc2ccccc2Cl)=C(c2c(C)cc(C)cc2C)C1=O (stereo not shown) [1-064] | 2 (Herbicidal ratio of 20% or higher and lower than 40%) | 5 (Herbicidal ratio of 90% or more (almost completely withered)) | 3 (Herbicidal ratio of 40% or higher and lower than 70%) | 4 (Herbicidal ratio of 70% or higher and lower than 90%) | 5 (Herbicidal ratio of 90% or more (almost completely withered)) | 4 (Herbicidal ratio of 70% or higher and lower than 90%) | 5 (Herbicidal ratio of 90% or more (almost completely withered)) | 5 (Herbicidal ratio of 90% or more (almost completely withered)) | 3 (Herbicidal ratio of 40% or higher and lower than 70%) | 1 (Herbicidal ratio of 5% or higher and lower than 20%) | 5 (Herbicidal ratio of 90% or more (almost completely withered))
